US20250339409A1, “USES OF PAN BET INHIBITORS” (VYNE THERAPEUTICS INC., priority 2021, published 2025)

How the values were obtained:
[1] = system: melanin in basal layers of RHE; assay: RHE vitiligo model: melanin content and localization by Fontana Masson staining; assay type: cell-based, human
Source text: Melanin deposition on 6 μm paraffin sections of each epidermis (n=3) are highlighted through staining with Fontana Masson reagents (VWR—VWRK641295, VWRK641311; Klinipath—641215). Slides are mounted with specific medium and examined with a Nikon Eclipse (Ni-E) photomicroscope coupled to a numerical camera (DS-Ri2)
For the melanin quantification, three images of each epidermis are taken and analysed using the NIS-Element AR software (Nikon). For the quantification of melanin, a region of interest (ROI) is first defined and measured in the epidermis. This region includes only the basal layers. Then, two measures are taken by the software in this ROI. The first one represents the labelled surface on the ROI, and thus the area occupied by the melanin in the ROI. The second one corresponds to the global intensity of the staining in the ROI, reflecting a lighter or darker melanin. The relative quantification of melanin in the ROI is then performed by multiplying these two measures. To normalize the results to a given surface, this value was then divided by the surface of the ROI.
Formulations containing four doses of BETi1 the BETi1 vehicle (placebo), were evaluated in RHE TNF-α/IFN-γ vitiligo model as described Experimental section Method F and representative images of […] epidermis sections are shown in FIG. 6A-G. The images according to this method are consistent with the images with H/E stained epidermis sections and shown in FIG. 4A-H.
Results of the quantification of melanin in basal layers of epidermis stimulated or not with the cytokine cocktail to induce melanocytorhagy and treated with the test items are shown in FIG. 6H. The results are expressed with normalization to the surface of region of interest (ROI) corresponding to the 2-3 basal layers of the RHEs. […] As for TRP-1 staining, the effects of the ruxolitinib cream at 1% on melanin content could not be assessed given that the sections have detached from the glass slides during the staining process (probably without being bound by any theory may be due to the bad structure of the epidermis).

[2] = system: bleomycin induced pulmonary fibrosis; assay: Bleomycin mice: lung histopathology (H & E, Masson's Trichrome), Hübner-modified Ashcroft score; assay type: in vivo, C57BL/6 male mice; details: for mean score, Hübner-modified Ashcroft scale of 0-8: bleomycin
Source text: Seven mice from each group are randomly submitted for histopathology analysis (Hematoxylin and eosin (H & E) and Masson's Trichrome (MT)). The lungs are trimmed as needed and processed overnight in a Citadel 1000 automated processor by Shandon Scientific. Post-processing, lungs are embedded in paraffin blocks and sectioned in the following fashion: several slides are generated with lung sections in the first 1 mm of tissue, middle portions of the tissue, and finally near the latter third of the tissue in order to glean histological alterations throughout the lung. Sections are cut at […] thickness with a rotary microtome. Several slides per lung (at each depth) are stained with a H & E stain (reagents from Fisher Scientific) and MT Stain (Sigma kit HT15).
Pathological alterations are evaluated by a pathologist in blind manner (both dosage and treatment programs are unknown to the pathologist). The subacute interstitial inflammation and Agonal Hemorrhage are evaluated mainly based on the H & E staining. Fibrotic modifications are assessed morphologically and semi-quantitatively graded according to the scale defined by Ashcroft and modified by Hübner. Three sections for each lung sample are stained with MT and scored on a scale of 0-8. The final score is expressed as a mean of individual scores observed across all microscopic fields. In order to quantify the distribution of pulmonary fibrosis, the Ashcroft scores are graded in 3 general classes of increasing values: ranging from 0-3 (mild), 4 (moderate) and ≥5 (severe).
Three sections for each lung sample were stained with H & E and Masson's Trichrome and scored on a Hübner-modified Ashcroft scale of 0-8. Three pictorial representations for each of groups 1-5 are shown in FIGS. 19A-E respectively (100×) and one representation for each of groups 1-5 is shown in FIGS. 19F-J (40×). Histology provides a picture or snapshot of the absence or presence of fibrosis. […] Other groups with higher concentrations of BETi also appeared to lessen bleomycin induced fibrosis but to a lesser degree.

Structure (SMILES): Cn1cc(-c2cccc(O)c2Oc2ccccc2)c2cc[nH]c2c1=O [BETi1]
- melanin retained relative to unstimulated control ([1]; basal layers of RHE): approximately 75%
- residual melanin levels, % of stimulated/untreated control ([1]; basal layers of RHE): about 367%
- melanin content in the basal layers ([1]; stimulated RHE, vs vehicle): significantly increase the melanin content in the basal layers
- Mean Histology Score (Hubner-modified Ashcroft) ([2]; Group 3 Bleo/BETi1 0.06 mg/mL): 3.00
- Mean Histology Score (Hubner-modified Ashcroft) ([2]; Group 4 Bleo/BETi1 0.6 mg/mL): 4.64
- Mean Histology Score (Hubner-modified Ashcroft) ([2]; Group 5 Bleo/BETi1 3 mg/mL): 5.52
- mean score, Hübner-modified Ashcroft scale of 0-8 ([2]; 0.06 mg/mL): 3.00
- mean score, Hübner-modified Ashcroft scale of 0-8 ([2]; 0.6 mg/mL): 4.64
- mean score, Hübner-modified Ashcroft scale of 0-8 ([2]; 3 mg/mL): 5.52
